{"source": "patent US20080139520A1", "about": "“Altering cholesterol and fat uptake by novel allosteric inhibitors of pancreatic phospholipase A2” (priority 2006, published 2008)", "key": {"PLA2 (3W)(WT)": {"target": "T1, PLA2 (3W)(WT) (Sus scrofa, UniProt P00592)", "T1 construct": "made in house", "T1 sequence (P00592 23-146)": "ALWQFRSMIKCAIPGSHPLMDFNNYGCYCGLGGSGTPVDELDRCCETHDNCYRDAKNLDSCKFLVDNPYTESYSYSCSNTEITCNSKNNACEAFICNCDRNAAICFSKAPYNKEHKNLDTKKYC", "test": "Bile salt binding by Trp emission, (3W)(WT) PLA2", "parameters": "species or system pig", "conditions": "read-out: KEB", "procedure": "(§1) Fluorescence emission spectrum or time course of the intensity change from tryptophan or the resonance energy transfer probe TMA-DPH were measured in the ratio mode on SLM-Aminco AB2 in a 1 cm cuvette [31, 32] in 1.6 ml stirred buffer containing 1 or 2 μM PLA2 in 10 mM Tris, 5 mM CaCl2 and 20 mM NaCl at pH 8.0 and 24° C. The slit-widths were 4 nm with excitation at 280.\n(§2) As shown in [45], the binding of decylsulfate to the R site is accompanied by a modest increase in the emission intensity from Trp-3. […] As summarized in Table 2, the value of KEB depends on the position of Trp, although Hill coefficient remains 1. […] Note that KEB for the EB complex of ΔPLA2 is about 7-fold larger than that for PLA2."}, "WT (wild type) pig PLA2": {"target": "T2, WT (wild type) pig PLA2 (Sus scrofa, UniProt P00592)", "T2 construct": "made in house", "T2 sequence (P00592 23-146)": "as above", "test": "PLA2 catalyzed hydrolysis of sonicated DMPC vesicles with added bile salt (pH-stat)", "assay_type": "biochemical", "procedure": "Aqueous dispersion of phospholipid was sonicated in a bath type sonicator. Virtually transparent suspension was annealed for at least 4 hours at room temperature before use. Reaction progress for the PLA2 catalyzed hydrolysis of sonicated DMPC (1 mM) vesicles was measured by pH-stat titration (Radiometer) with 1 mM 2-aminopropanediol in 4 ml reaction buffer containing 5 mM CaCl2 for DMPC (or 0.5 mM for DMPM), 1 mM NaCl, […] atmosphere. Reaction was initiated by adding 0.1 μg enzyme in 1-10 μl solution. The pH stat method was also used for monitoring the rate of hydrolysis of DMPM (0.4 mM) vesicles in the presence of polymyxin [27-29], or of the mixed-micelles of POPC with bile salts in 1:2 ratio [13, 30].\nDelay before the onset of the stationary phase of the PLA2 catalyzed reaction progress for the hydrolysis of zwitterionic phospholipids has been extensively characterized. […] The apparent rates in FIG. 3 were obtained from the initial slopes of such reaction progress during which <5% of the total substrate is hydrolyzed.\nThe CMC of the bile salts used in this study range between 0.8 to 5 mM."}, "human pancreatic IB PLA2 [1]": {"target": "T3, human pancreatic IB PLA2 (Homo sapiens, UniProt P04054)", "T3 construct": "gift of Dr. Suren Tatulian (Orlando, Fla.)", "T3 sequence (P04054 23-148)": "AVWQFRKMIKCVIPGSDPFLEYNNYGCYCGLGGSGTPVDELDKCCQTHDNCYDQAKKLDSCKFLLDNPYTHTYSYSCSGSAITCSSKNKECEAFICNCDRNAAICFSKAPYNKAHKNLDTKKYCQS", "test": "Hydrolysis of DMPC vesicles by human IB PLA2 with added bile salt", "assay_type": "biochemical", "conditions": "1 mM DMPC", "procedure": "(§3) Aqueous dispersion of phospholipid was sonicated in a bath type sonicator. Virtually transparent suspension was annealed for at least 4 hours at room temperature before use. Reaction progress for the PLA2 catalyzed hydrolysis of sonicated DMPC (1 mM) vesicles was measured by pH-stat titration (Radiometer) with 1 mM 2-aminopropanediol in 4 ml reaction buffer containing 5 mM CaCl2 for DMPC (or 0.5 mM for DMPM), 1 mM NaCl, and 0.1 mM EDTA at pH 8.0 and 24° C. in the nitrogen purged closed atmosphere. Reaction was initiated by adding 0.1 μg enzyme in 1-10 μl solution. The pH stat method was also used for monitoring the rate of hydrolysis of DMPM (0.4 mM) vesicles in the presence of polymyxin [27-29], or of the mixed-micelles of POPC with bile salts in 1:2 ratio [13, 30]."}, "PLA2 K63W/W3F": {"target": "PLA2 K63W/W3F (Sus scrofa, UniProt P00592, W25F/)", "sequence (P00592 whole entry W25F/F85W, form open)": "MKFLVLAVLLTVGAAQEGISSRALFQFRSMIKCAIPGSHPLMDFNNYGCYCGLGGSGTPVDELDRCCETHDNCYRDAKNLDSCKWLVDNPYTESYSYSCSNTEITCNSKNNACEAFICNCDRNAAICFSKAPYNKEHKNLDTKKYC", "test": "Bile salt binding by Trp emission, K63W/W3F PLA2", "parameters": "species or system pig", "conditions": "read-out: KEB", "procedure": "as §1, §2"}, "human pancreatic IB PLA2 [2]": {"target": "T3, human pancreatic IB PLA2", "test": "Rate-lowering of hydrolysis of DMPC + 0.05 mole fraction cholate vesicles by human pancreatic PLA2", "assay_type": "biochemical", "description": "(§4) Independent support for selective binding of the rate lowering compounds to a regulatory site on PLA2 comes from the rate-lowering effect of such compounds on the hydrolysis of DMPC vesicles containing 0.05 mole fraction cholate.\n(§5) Scores of other compounds in guggul were not active."}, "PLA2 Δ62-66": {"target": "T4, PLA2 Δ62-66 (Sus scrofa, UniProt P00592, DEL84-88)", "T4 construct": "made in house", "T4 sequence (P00592 with tags, fused parts or gaps DEL84-88)": "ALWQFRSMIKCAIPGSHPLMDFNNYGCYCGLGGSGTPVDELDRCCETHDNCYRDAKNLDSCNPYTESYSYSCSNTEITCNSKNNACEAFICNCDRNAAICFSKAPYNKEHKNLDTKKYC", "test": "Bile salt binding by Trp emission, Δ62-66 PLA2", "parameters": "species or system pig", "procedure": "as §1, §2"}, "pig pancreatic IB PLA2": {"target": "T5, pig pancreatic IB PLA2 (Sus scrofa, UniProt P00592)", "T5 construct": "made in house", "T5 sequence (P00592 23-146)": "as the sequence (P00592 23-146) above", "test": "Rate-lowering of hydrolysis of DMPC + 0.05 mole fraction cholate vesicles by pig pancreatic PLA2", "assay_type": "biochemical", "conditions": "0.03 mole fraction; DMPC + 0.05 mole fraction cholate", "description": "as §4, §5"}, "PLA2 N117W": {"target": "T6, PLA2 N117W (Sus scrofa, UniProt P00592, N139W)", "T6 construct": "made in house", "T6 sequence (P00592 23-146 N139W)": "as the sequence (P00592 23-146) above, with N117W counted along it", "test": "Bile salt binding by Trp emission, N117W PLA2", "parameters": "species or system pig", "conditions": "read-out: KEB", "procedure": "as §1, §2"}, "PLA2 K87W/W3F": {"target": "T7, PLA2 K87W/W3F (Sus scrofa, UniProt P00592, K109W/W25F)", "T7 construct": "made in house", "T7 sequence (P00592 23-146 W25F/K109W)": "as the sequence (P00592 23-146) above, with W3F, K87W counted along it", "test": "Bile salt binding by Trp emission, K87W/W3F PLA2", "parameters": "species or system pig", "conditions": "read-out: KEB", "procedure": "as §1, §2"}, "PLA2 K53W/W3F": {"target": "T8, PLA2 K53W/W3F (Sus scrofa, UniProt P00592, R75W/W25F)", "T8 construct": "made in house", "T8 sequence (P00592 23-146 W25F/R75W)": "as the sequence (P00592 23-146) above, with W3F, R53W counted along it", "test": "Bile salt binding by Trp emission, K53W/W3F PLA2", "parameters": "species or system pig", "conditions": "read-out: KEB", "procedure": "as §1, §2"}, "PLA2 [3]": {"target": "T9, PLA2 (Sus scrofa, UniProt P00592)", "T9 construct": "made in house", "T9 sequence (P00592 23-146)": "as the sequence (P00592 23-146) above", "test": "PLA2 catalyzed hydrolysis of mixed micelles of POPC with bile salts", "assay_type": "biochemical, pig", "conditions": "1 mM POPC, 0.7 mole fraction bile salt", "procedure": "as §3"}, "PLA2 A1W/W3F": {"target": "T10, PLA2 A1W/W3F (Sus scrofa, UniProt P00592, A23W/W25F)", "T10 construct": "made in house", "T10 sequence (P00592 23-146 A23W/W25F)": "as the sequence (P00592 23-146) above, with A1W, W3F counted along it", "test": "Bile salt binding by Trp emission, A1W/W3F PLA2", "parameters": "species or system pig", "conditions": "read-out: KEB", "procedure": "as §1, §2"}, "PLA2 K10W/W3F": {"target": "T11, PLA2 K10W/W3F (Sus scrofa, UniProt P00592, K32W/W25F)", "T11 construct": "made in house", "T11 sequence (P00592 23-146 W25F/K32W)": "as the sequence (P00592 23-146) above, with W3F, K10W counted along it", "test": "Bile salt binding by Trp emission, K10W/W3F PLA2", "parameters": "species or system pig", "conditions": "read-out: KEB", "procedure": "as §1, §2"}, "[4]": {"target": "T12, (62-66)-loop deleted pig pancreatic IB ΔPLA2 (Sus scrofa, UniProt P00592, DEL84-88)", "T12 construct": "made in house", "T12 sequence (P00592 with tags, fused parts or gaps DEL84-88)": "as the sequence (P00592 with tags, fused parts or gaps DEL84-88) above", "test": "Hydrolysis of DMPC vesicles by (62-66)-loop deleted ΔPLA2 with added bile salt", "assay_type": "biochemical", "procedure": "as §3"}, "PLA2 K56W/W3F": {"target": "T13, PLA2 K56W/W3F (Sus scrofa, UniProt P00592, K78W/W25F)", "T13 construct": "made in house", "T13 sequence (P00592 23-146 W25F/K78W)": "as the sequence (P00592 23-146) above, with W3F, K56W counted along it", "test": "Bile salt binding by Trp emission, K56W/W3F PLA2", "parameters": "species or system pig", "conditions": "read-out: KEB", "procedure": "as §1, §2"}, "PLA2 [5]": {"target": "T9, PLA2", "test": "Quenching of RET signal from TMA-DPH bound to PLA2 by bile salts", "assay_type": "binding, pig", "conditions": "1 μM PLA2 and TMA-DPH, pH 8.0", "procedure": "as §1"}, "PLA2 L2W/W3F": {"target": "T14, PLA2 L2W/W3F (Sus scrofa, UniProt P00592, L24W/W25F)", "T14 construct": "made in house", "T14 sequence (P00592 23-146 L24W/W25F)": "as the sequence (P00592 23-146) above, with L2W, W3F counted along it", "test": "Bile salt binding by Trp emission, L2W/W3F PLA2", "parameters": "species or system pig", "conditions": "read-out: KEB", "procedure": "as §1, §2"}, "proPLA2": {"target": "proPLA2 (Sus scrofa, UniProt P00592)", "sequence (P00592 16-146 limits assumed)": "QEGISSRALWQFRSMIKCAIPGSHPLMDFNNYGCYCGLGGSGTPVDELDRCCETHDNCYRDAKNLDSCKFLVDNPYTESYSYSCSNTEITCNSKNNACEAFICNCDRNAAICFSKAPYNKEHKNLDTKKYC", "test": "Bile salt binding by Trp emission, proPLA2", "parameters": "species or system pig", "conditions": "read-out: KEB", "procedure": "as §1, §2"}}, "note": "pKd: −log10 of the molar value."}
{"compound": "C[C@H](CCC(=O)NCCS(=O)(=O)O)[C@H]1CC[C@H]2[C@@H]3[C@H](O)C[C@@H]4C[C@H](O)CC[C@]4(C)[C@H]3CC[C@]12C", "note": "[TCDOC, taurochenodeoxycholate]", "values": [{"measurement": "pKd", "setting": "PLA2 (3W)(WT)", "result": 5.22}, {"measurement": "concentration at which the rate increase and decrease is complete", "setting": "WT (wild type) pig PLA2; 1 mM DMPC vesicles", "result": "< 0.12", "unit": "mM"}, {"measurement": "peak rate of hydrolysis of DMPC vesicles", "setting": "WT (wild type) pig PLA2; 1 mM DMPC, 24° C., cholate above 0.04 mM", "result": 80, "unit": "s⁻¹"}, {"measurement": "bile salt concentration at the maximum rate", "setting": "WT (wild type) pig PLA2; 16° C., 1 mM DMPC", "result": 0.013, "unit": "mM"}, {"measurement": "bile salt concentration at the maximum rate", "setting": "WT (wild type) pig PLA2; 29° C., 1 mM DMPC", "result": 0.13, "unit": "mM"}, {"measurement": "effect of bile salt on the rate of hydrolysis (monophasic/biphasic)", "setting": "WT (wild type) pig PLA2; DMPC vesicles, pancreatic PLA2", "result": "a rate increase and then a rate decrease at higher concentration"}, {"measurement": "effect on rate of hydrolysis of DMPC vesicles by human pancreatic IB PLA2", "setting": "human pancreatic IB PLA2 [1]", "result": "virtually no rate increase"}, {"measurement": "pKd", "setting": "PLA2 K63W/W3F", "result": 5.52}, {"measurement": "Relative Rate-lowering (%) Activity, hPLA2", "setting": "human pancreatic IB PLA2 [2]; 0.03 mole fraction, DMPC + 0.05 mole fraction cholate", "result": 90, "unit": "%"}, {"measurement": "relative effectiveness in lowering the rate of hydrolysis by human PLA2", "setting": "human pancreatic IB PLA2 [2]; DMPC vesicles containing 0.05 mole fraction cholate, FIG. 5B", "result": "more effective than ezetimibe"}, {"measurement": "pKd", "setting": "PLA2 Δ62-66; Δ62-66, read-out: KEB", "result": 4.39}, {"measurement": "KEB for the EB complex of ΔPLA2 relative to PLA2", "setting": "PLA2 Δ62-66; ΔPLA2 versus PLA2", "result": "about 7 fold"}, {"measurement": "Relative Rate-lowering (%) Activity, pPLA2", "setting": "pig pancreatic IB PLA2", "result": 26, "unit": "%"}, {"measurement": "pKd", "setting": "PLA2 N117W", "result": 5.15}, {"measurement": "pKd", "setting": "PLA2 K87W/W3F", "result": 3.70}, {"measurement": "pKd", "setting": "PLA2 K53W/W3F", "result": 4.82}, {"measurement": "initial rate of hydrolysis of POPC in mixed micelles", "setting": "PLA2 [3]", "result": 15, "unit": "s⁻¹"}, {"measurement": "pKd", "setting": "PLA2 A1W/W3F", "result": 3.68}, {"measurement": "pKd", "setting": "PLA2 K10W/W3F", "result": 5.40}, {"measurement": "rate lowering effect with ΔPLA2 mutant", "setting": "[4]", "result": "not observed"}, {"measurement": "pKd", "setting": "PLA2 K56W/W3F", "result": 4.68}, {"measurement": "efficacy to quench RET signal from TMA-DPH bound to PLA2", "setting": "PLA2 [5]", "result": "most effective"}, {"measurement": "pKd", "setting": "PLA2 L2W/W3F", "result": 4.74}, {"measurement": "pKd", "setting": "proPLA2", "result": 4.57}]}
